Laboratory results reported in ChEMBL document CHEMBL3044672, “N9- and N7-(Chloromethyl Phenymethyl)Chloropurine Derivatives from , '-Dichloroxylenes: Synthesis and Anticancer Activity” (2005).

Assays:
Format in all cases: functional
NCI-H460 = experiment: Cytotoxicity against Homo sapiens (human) NCI-H460 cells after 48 hr by sulforhodamine B assay; details: NCI-H460, 48 h
SF-295 = experiment: Cytotoxicity against Homo sapiens (human) SF295 cells after 48 hr by sulforhodamine B assay; details: SF-295, 48 h
DU-145 = experiment: Cytotoxicity against Homo sapiens (human) DU145 cells after 48 hr by sulforhodamine B assay; details: DU-145, 48 h
[1] = Cytotoxicity against Homo sapiens (human) NCI-ADR-RES cells after 48 hr by sulforhodamine B assay
MCF7 = experiment: Cytotoxicity against Homo sapiens (human) MCF7 cells assessed as cell growth at 10^-4 M after 48 hr by Alamar blue assay; details: MCF7, 48 h, read-out: Activity
SK-OV-3 = experiment: Cytotoxicity against Homo sapiens (human) SKOV3 cells after 48 hr by sulforhodamine B assay; details: SK-OV-3, 48 h
M14 = experiment: Cytotoxicity against Homo sapiens (human) M14 cells after 48 hr by sulforhodamine B assay; details: M14, 48 h
HCC 2998 = experiment: Cytotoxicity against Homo sapiens (human) HCC2998 cells after 48 hr by sulforhodamine B assay; details: HCC 2998, 48 h
EKVX = experiment: Cytotoxicity against Homo sapiens (human) EKVX cells after 48 hr by sulforhodamine B assay
HOP-62 = experiment: Cytotoxicity against Homo sapiens (human) HOP62 cells after 48 hr by sulforhodamine B assay; details: HOP-62, 48 h
T47D = experiment: Cytotoxicity against Homo sapiens (human) T47D cells after 48 hr by sulforhodamine B assay
SF-268 = experiment: Cytotoxicity against Homo sapiens (human) SF268 cells after 48 hr by sulforhodamine B assay; details: SF-268, 48 h
UACC-257 = experiment: Cytotoxicity against Homo sapiens (human) UACC257 cells after 48 hr by sulforhodamine B assay; details: UACC-257, 48 h
786-0 = experiment: Cytotoxicity against Homo sapiens (human) 786-0 cells after 48 hr by sulforhodamine B assay; details: 786-0, 48 h
MDA-MB-231 = experiment: Cytotoxicity against Homo sapiens (human) MDA-MB-231 cells after 48 hr by sulforhodamine B assay; details: MDA-MB-231, 48 h
Hs-578T = experiment: Cytotoxicity against Homo sapiens (human) Hs 578T cells after 48 hr by sulforhodamine B assay
HOP-92 = experiment: Cytotoxicity against Homo sapiens (human) HOP92 cells after 48 hr by sulforhodamine B assay; details: HOP-92, 48 h
NCI-H322M = experiment: Cytotoxicity against Homo sapiens (human) NCI-H322M cells after 48 hr by sulforhodamine B assay
MOLT-4 = experiment: Cytotoxicity against Homo sapiens (human) MOLT4 cells after 48 hr by sulforhodamine B assay; details: MOLT-4, 48 h
TK-10 = experiment: Cytotoxicity against Homo sapiens (human) TK10 cells after 48 hr by sulforhodamine B assay; details: TK-10, 48 h
CAKI-1 = experiment: Cytotoxicity against Homo sapiens (human) Caki1 cells after 48 hr by sulforhodamine B assay; details: CAKI-1, 48 h
LOX IMVI = experiment: Cytotoxicity against Homo sapiens (human) LOXIMVI cells after 48 hr by sulforhodamine B assay
UACC-62 = experiment: Cytotoxicity against Homo sapiens (human) UACC62 cells after 48 hr by sulforhodamine B assay; details: UACC-62, 48 h
IGROV-1 = experiment: Cytotoxicity against Homo sapiens (human) IGROV1 cells after 48 hr by sulforhodamine B assay; details: IGROV-1, 48 h
ACHN = experiment: Cytotoxicity against Homo sapiens (human) ACHN cells after 48 hr by sulforhodamine B assay
SNB-19 = experiment: Cytotoxicity against Homo sapiens (human) SNB19 cells after 48 hr by sulforhodamine B assay; details: SNB-19, 48 h
NCI-H23 = experiment: Cytotoxicity against Homo sapiens (human) NCI-H23 cells after 48 hr by sulforhodamine B assay; details: NCI-H23, 48 h
A549 = experiment: Cytotoxicity against Homo sapiens (human) A549 cells after 48 hr by sulforhodamine B assay; details: A549, 48 h
OVCAR-5 = experiment: Cytotoxicity against Homo sapiens (human) OVCAR5 cells after 48 hr by sulforhodamine B assay; details: OVCAR-5, 48 h
SK-MEL-2 = experiment: Cytotoxicity against Homo sapiens (human) SK-MEL-2 cells after 48 hr by sulforhodamine B assay; details: SK-MEL-2, 48 h
SK-MEL-5 = experiment: Cytotoxicity against Homo sapiens (human) SK-MEL-5 cells after 48 hr by sulforhodamine B assay; details: SK-MEL-5, 48 h
[2] = read-out: LC50 (the source's name)

Nc1nc(Cl)c2ncn(Cc3cccc(CCl)c3)c2n1
GI50 (NCI-H460): 4.26 µM | TGI (NCI-H460): 15.8 µM | CC50 (NCI-H460; [2]): 47.9 µM | GI50 (SF-295): 3.38 µM | TGI (SF-295): 14.5 µM | CC50 (SF-295; [2]): 39.8 µM | GI50 (DU-145): 4.26 µM | LC50 (DU-145): 40.7 µM | TGI (DU-145): 16.6 µM | GI50 [1]: 4.89 µM | LC50 (concentration killing 50% of cells) [1]: 75.9 µM | TGI [1]: 19.9 µM | growth at 100 µM (MCF7): 0% | GI50 (SK-OV-3): 24 µM | LC50 (SK-OV-3): > 100 µM | TGI (SK-OV-3): 67.6 µM | GI50 (M14): 3.63 µM | LC50 (M14): 41.7 µM | TGI (M14): 11.7 µM | GI50 (HCC 2998): 3.02 µM | TGI (HCC 2998): 4.89 µM | CC50 (HCC 2998; [2]): 77.6 µM | GI50 (EKVX): 21.4 µM | TGI (EKVX): 36.3 µM | CC50 (EKVX; [2]): 60.2 µM | GI50 (HOP-62): 5.75 µM | TGI (HOP-62): 20.4 µM | CC50 (HOP-62; [2]): 58.9 µM | GI50 (T47D): 6.02 µM | LC50 (T47D): > 100 µM | TGI (T47D): 37.1 µM | GI50 (SF-268): 3.02 µM | TGI (SF-268): 10.2 µM | CC50 (SF-268; [2]): 67.6 µM | GI50 (UACC-257): 5.75 µM | LC50 (concentration killing 50% of cells) (UACC-257): 49 µM | TGI (UACC-257): 19.5 µM | GI50 (786-0): 6.6 µM | LC50 (786-0): 91.2 µM | TGI (786-0): 26.3 µM | GI50 (MDA-MB-231): 12 µM | LC50 (MDA-MB-231): 69.2 µM | TGI (MDA-MB-231): 28.8 µM | GI50 (Hs-578T): 11.5 µM | LC50 (Hs-578T): > 100 µM | TGI (Hs-578T): 60.2 µM | GI50 (HOP-92): 0.63 µM | TGI (HOP-92): 38 µM | CC50 (HOP-92; [2]): > 100 µM | GI50 (NCI-H322M): 10.5 µM | TGI (NCI-H322M): 22.4 µM | CC50 (NCI-H322M; [2]): 46.8 µM | GI50 (MOLT-4): 4.78 µM | TGI (MOLT-4): > 100 µM | CC50 (MOLT-4; [2]): > 100 µM | GI50 (TK-10): 2.39 µM | TGI (TK-10): 7.08 µM | CC50 (TK-10; [2]): 27.5 µM | GI50 (CAKI-1): 0.24 µM | TGI (CAKI-1): 1.51 µM | CC50 (CAKI-1; [2]): 15.8 µM | GI50 (LOX IMVI): 3.38 µM | LC50 (LOX IMVI): 81.3 µM | TGI (LOX IMVI): 13.2 µM | GI50 (UACC-62): 2.09 µM | LC50 (concentration causing 50% net cell kill) (UACC-62): 13.5 µM | TGI (UACC-62): 4.78 µM | GI50 (IGROV-1): 3.46 µM | LC50 (IGROV-1): 55 µM | TGI (IGROV-1): 12.9 µM | GI50 (ACHN): 2.88 µM | TGI (ACHN): 8.71 µM | CC50 (ACHN; [2]): 29.5 µM | GI50 (SNB-19): 3.16 µM | LC50 (SNB-19): 46.8 µM | TGI (SNB-19): 15.1 µM | GI50 (NCI-H23): 2.04 µM | TGI (NCI-H23): 5.01 µM | CC50 (NCI-H23; [2]): 26.9 µM | GI50 (A549): 12.3 µM | TGI (A549): 27.5 µM | CC50 (A549; [2]): 63.1 µM | GI50 (OVCAR-5): 11 µM | TGI (OVCAR-5): 25.1 µM | CC50 (OVCAR-5; [2]): 57.5 µM | GI50 (SK-MEL-2): 10.7 µM | LC50 (concentration killing 50% of cells) (SK-MEL-2): > 100 µM | TGI (SK-MEL-2): 66.1 µM | GI50 (SK-MEL-5): 11 µM | LC50 (SK-MEL-5): 51.3 µM | TGI (SK-MEL-5): 23.4 µM
